Experiments:
[1] = tested on: HBsAg; test: PHH assay for inhibition of HBsAg; format: cell-based, genotype D (AD38-derived) HBV in primary human hepatocytes; settings: Hepatitis B virus, 288 h, read-out: HBsAg EC50
Method: Primary human hepatocytes (PHH) (Bioreclamation IVT) were plated on collagen-coated flasks using Plating Media (Life Technologies) containing William's Medium E supplemented with 1% penicillin/streptomycin, 4 μg/mL human recombinant insulin, 2 mM GlutaMAX, 15 mM HEPES, 1 μM dexamethasone, 5% fetal bovine serum, and 0.2% Torpedo Antibiotic Mix (Bioreclamation IVT). After a 4-hour incubation at 37° C., cells were switched to Maintenance Media (Life Technologies) containing William's Medium E supplemented with 0.5% penicillin/streptomycin, 6.25 µg/mL human recombinant insulin, 6.25 μg/mL human transferrin, 6.25 ng/mL selenous acid, 1.25 mg/mL bovine serum albumin, 5.35 μg/mL linoleic acid, 2 mM GlutaMAX, 15 mM HEPES, 0.1 μM dexamethasone, 2% fetal bovine serum, 2% DMSO, and 0.2% Torpedo Antibiotic Mix (Bioreclamation IVT). On the next day, PHH were infected with 500 genome equivalent per cell of genotype D (AD38-derived) HBV in Maintenance Media supplemented with 4% PEG 8000 (Promega). After 24 hour incubation, cells were washed three times with William's Medium E and fed with fresh Maintenance Media. At 3 days after infection, infected PHH cells were seeded on 96-well plates pre-coated with collagen at a density of 65000 cells per well containing serially diluted solutions of certain compounds disclosed herein or DMSO (1% final concentration) in a final volume of 125 μl of Maintenance Media (Life Technologies) containing William's Medium E supplemented with 0.5% penicillin/streptomycin, 6.25 μg/mL human recombinant insulin, 6.25 μg/mL human transferrin, 6.25 ng/mL selenous acid, 1.25 mg/mL bovine serum albumin, 5.35 μg/mL linoleic acid, 2 mM GlutaMAX, 15 mM HEPES, 0.1 μM dexamethasone, 5% fetal bovine serum, 1 mM 1-amininobenzotriaole, and 0.2% Torpedo Antibiotic Mix (Bioreclamation IVT). Media with compounds was replenished every 2-3 days. After an incubation time of 12 days, secreted HBsAg in the supernatant were measured using a multiplex chemiluminescent (Mesoscale discovery, MSD) assay using capture and detection antibody pairs specific for HBsAg. Comparative Example 1 and Comparative Example 2 have the following structures and were prepared according to International Publication No. WO 2015/113990.

[2] = MT-4 cytotoxicity assay; format: cell-based; settings: human, MT-4 cells; five days incubation, Cell Titer Glo
Method: The MT-4 cell line (HTLV-1 transformed, human T lymphoblastoid cells) was obtained from the NIH AIDS Reagent program (Bethesda, Md.). MT-4 cells were maintained in RPMI-1640 supplemented with 10% fetal bovine serum (FBS, Hyclone, Logan, Utah). All cell culture media were also supplemented with 100 Units/mL penicillin, 100 μg/mL streptomycin (Gibco). For the MT-4 cytotoxicity assay, 0.4 μL of serially diluted solutions of certain compounds disclosed herein were added to 40 μL of cell maintenance media in 384-well black, solid bottom plate using a Biomek FX workstation (Beckman Coulter). Two thousand cells in 35 μL were added to each well using a Biotek uFlow Workstation (Biotek). Each assay plate contained 10 μM puromycin (final concentration) and 0.5% DMSO in RPMI-1640 as positive and negative controls, respectively. Assay plates were incubated for five days at 37° C. in an incubator set at 5% CO2 and 90% humidity. After five days, 22 μL of Cell Titer Glo reagent (Promega) was added to the assay plates with a Biotek uFlow Workstation. Plates were subsequently placed on a Perkin Elmer Envision Plate Reader for five minutes before the luminescence signal was read. CC50 values were calculated by non-linear regression using Pipeline Pilot software by applying a four parameter fit equation (Accelrys, San Diego, Calif.) and are reported in the following Table 2.

[3] = In vitro metabolic stability, hepatic microsomes (rat); format: in vitro ADME; settings: pooled hepatic microsomes, pH 7.4; rat hepatic microsomes 1.0 mg/mL, 1 μM compound, NADPH and UDPGA cofactors; read-out: Microsome Stability T1/2 Rat
Method: (§1) Pooled hepatic microsomes were diluted in […] potassium phosphate buffer to 1.0 mg/mL final protein concentration. Alamethicin was added to the microsomal fraction to permeabilize the membrane to allow access of the UDP-glucronic acid (UDPGA) co-substrate to the active site of the UDP glucuronosyl transferase (UGT) enzymes. The final concentration was 25 μg/mL (ratio 25 μg alamethicin/mg microsomal protein) and the microsomes were then placed on ice for 15 min prior to the start of the reaction. Test compound was added to a final concentration of 1 μM. Positive control compounds known to be metabolized by oxidative and UGT enzymes were used. The metabolic reaction was warmed to 37° C. and initiated by the addition of a cofactor mix that consisted of 1.55 mM NADP, 3.3 mM glucose-6-phosphate, 0.4 U/mL glucose-6-phosphate dehydrogenase, 5 mM UDP-glucuronic acid and 3.3 mM MgCl2 all dissolved in 0.1 M potassium phosphate buffer, pH 7.4. At 2, 12, 25, 45, and 65 min, 25 μL aliquots of the reaction mixture were transferred to plates containing 225 μl of quenching solution (acetonitrile containing 300 nM labetalol IS and 0.1% formic acid). After quenching, the plates are centrifuged at 3000×g for 30 minutes to precipitate proteins, and 10 μL aliquots of the supernatant are analyzed by HPLC coupled to a high-resolution mass spectrometer.
(§2) Quantification of test compounds and positive controls were performed using analyte/internal standard peak area ratios (PAR) measured on a Q-Exactive mass spectrometer (Thermo Scientific, San Jose, Calif.) coupled to an Aria Transcend LX-4 multiplex UHPLC system (Thermo Scientific, San Jose, Calif.). A Hypersil Gold C18 UHPLC column (1.9 […], 50×2.1 mm) was used with mobile phases A and B consisting of 0.1% formic acid in water and 0.1% formic acid in acetonitrile, respectively. […] Half-lives of compounds in the incubations were calculated from extracted data using GMSU/QuickCalc (Gubbs, Inc.) and data are summarized in the following Table 3.

[4] = In vitro metabolic stability, hepatic microsomes (human); format: in vitro ADME; settings: pooled hepatic microsomes, pH 7.4; human hepatic microsomes 1.0 mg/mL, 1 μM compound, NADPH and UDPGA cofactors; read-out: Microsome Stability T1/2 Human
Method: as §1, §2

SMILES	EC50 [1] [nM]	CC50 at 5 days [2] [nM]	half-life at 1 μM [3] [h]	half-life at 1 μM [4] [h]
COCCCOc1cc2c(cc1Cl)-c1cc(=O)c(C(=O)O)cn1[C@H](C(C)(C)C)C2 [Comparative Example 2]	0.5	5700	3.83	4.9
COCCCOc1cc2c(cc1Cl)-c1cc(=O)c(C(=O)O)cn1[C@H](C1(C)CC1)C2 [Comparative Example 1]	1.8	4200	3.82	3.9
COCCCOc1cc2c(cc1Cl)-c1cc(=O)c(C(=O)O)cn1N(C(C)(C)C)C2 [Example 2, 6-(tert-Butyl)-10-chloro-9-(3-methoxypropoxy)-2-oxo-6,7-dihydro-2H-pyrido[2,1-a]-phthalazine-3-carboxylic acid]	3	> 10000	> 5.83	> 5.83

Source: patent publication US10100052B2, “Compounds for the treatment of hepatitis B virus infection” (Gilead Sciences, Inc., priority 2016, dated 2018)
